Experimental data published in ChEMBL document CHEMBL1157422, “Phloroglucinols with antioxidant activity and xanthonolignoids from the heartwood of Hypericum geminiflorum” (J Nat Prod, 2008).
Activity calls are given as the source filed them. The calls are words filed in the database; no cut-off is given here.

What was measured:
[1] = test system: Radical scavenging activity; assay: Antioxidant activity assessed as DPPH free radical scavenging; format: functional
[2] = molecular target: Xanthine dehydrogenase/oxidase (Homo sapiens, UniProt P47989); assay: Inhibition of xanthine oxidase
[3] = test system: Radical scavenging activity; assay: Antioxidant activity assessed as DPPH free radical scavenging at 300 uM; format: functional
[4] = test system: Escherichia coli; assay: Inhibition of oxygen free radical-induced DNA damage of Escherichia coli plasmid DNA pBR322 by agarose gel electrophoresis

Chain of Xanthine dehydrogenase/oxidase (P47989 whole entry): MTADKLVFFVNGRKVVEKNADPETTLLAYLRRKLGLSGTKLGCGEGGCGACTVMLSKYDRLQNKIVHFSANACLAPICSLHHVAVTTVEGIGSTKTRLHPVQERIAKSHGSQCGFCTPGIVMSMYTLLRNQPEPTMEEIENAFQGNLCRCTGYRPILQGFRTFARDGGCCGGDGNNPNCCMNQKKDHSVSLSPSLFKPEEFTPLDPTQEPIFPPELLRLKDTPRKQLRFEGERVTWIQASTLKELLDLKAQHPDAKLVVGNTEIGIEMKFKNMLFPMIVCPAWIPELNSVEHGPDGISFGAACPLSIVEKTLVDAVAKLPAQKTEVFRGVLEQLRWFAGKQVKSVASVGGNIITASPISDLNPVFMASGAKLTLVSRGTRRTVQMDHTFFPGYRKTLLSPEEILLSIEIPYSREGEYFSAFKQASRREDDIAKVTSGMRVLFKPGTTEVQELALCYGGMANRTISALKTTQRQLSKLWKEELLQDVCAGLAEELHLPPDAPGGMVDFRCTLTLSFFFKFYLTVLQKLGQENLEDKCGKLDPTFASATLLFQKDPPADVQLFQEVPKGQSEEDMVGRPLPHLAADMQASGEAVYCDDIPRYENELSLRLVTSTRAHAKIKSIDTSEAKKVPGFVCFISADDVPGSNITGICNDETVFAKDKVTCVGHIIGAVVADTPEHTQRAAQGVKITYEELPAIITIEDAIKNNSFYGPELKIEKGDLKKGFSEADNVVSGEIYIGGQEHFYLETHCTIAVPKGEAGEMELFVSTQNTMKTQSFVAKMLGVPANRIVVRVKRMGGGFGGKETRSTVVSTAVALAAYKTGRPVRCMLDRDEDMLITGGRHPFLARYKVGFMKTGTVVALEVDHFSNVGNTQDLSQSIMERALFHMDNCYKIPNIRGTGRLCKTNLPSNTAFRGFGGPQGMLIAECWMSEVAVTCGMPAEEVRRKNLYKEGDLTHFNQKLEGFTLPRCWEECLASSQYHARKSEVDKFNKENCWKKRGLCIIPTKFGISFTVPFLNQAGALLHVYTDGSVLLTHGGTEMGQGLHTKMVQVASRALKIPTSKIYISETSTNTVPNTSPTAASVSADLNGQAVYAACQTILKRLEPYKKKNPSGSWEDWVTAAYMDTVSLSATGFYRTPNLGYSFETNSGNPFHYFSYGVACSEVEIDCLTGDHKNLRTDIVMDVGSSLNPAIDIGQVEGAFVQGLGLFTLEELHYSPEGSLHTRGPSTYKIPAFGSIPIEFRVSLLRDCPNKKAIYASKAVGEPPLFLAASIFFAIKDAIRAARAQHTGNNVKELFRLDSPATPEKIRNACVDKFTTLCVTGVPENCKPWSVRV

SMILES | IC50 [1] [µM] | IC50 [2] [µM] | inhibition [3] [%] | Activity [4]
Cc1c(C)c2c(c(C)c1O)CC[C@@](C)(CCCC(C)CCCC(C)CCCC(C)C)O2 (single isomer, unassigned) [ALPHA-TOCOPHEROL] | 18.1 |  |  | 
CCC(C)C(=O)C1=C(O)[C@@](C)(CC=C(C)C)C(=O)[C@@]2(C[C@H]3[C@H](CC[C@@]3(C)O)[C@](C)(O)C2)C1=O (some centres not stated) [HYPERIELLIPTONE HB] |  | 42.1 | 4.5 | Active
CCC(C)C(=O)C1=C(O)[C@]2(C[C@H]3[C@H](CC[C@@]3(C)O)[C@](C)(O)C2)C(=O)[C@](C)(CC=C(C)C)C1=O (some centres not stated) [HYPERIELLIPTONE HB] |  | 42.1 | 4.5 | Active
